Reference: patent publication US20260193264A1, “BENZOYPARAZINE PYRAZINES AND THEIR USES” (FOGHORN THERAPEUTICS INC., priority 2022, published 2026)

Experiments:
[1] = biological target: T1, HiBiT-BRM fusion protein in stable HeLa cell line (Homo sapiens, UniProt P51531); experiment: HiBiT-BRM cell-based degradation assay (Nano-Glo HiBiT Lytic Detection, 24 h); design: DC50: scale not given here; conditions: HeLa HiBiT-BRM cells; for DC50: read-out: BRM HiBit Degradation IC50; for BRM HiBit Degradation Maximum (%): top dose 30 μM
T1 construct: expressed in transfected cells
Method in brief: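 HeLa stably expressing HiBiT-BRM; 24 h compound exposure, 10-pt 3-fold dilution from 30 μM final, duplicates. Lytic LgBiT complementation, luminescence. % degradation vs DMSO (HC) and 2 μM known BRM/BRG1 degrader (LC).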

[2] = biological target: T2, HiBit-BRG1 fusion protein in stable HeLa cell line expressing HiBit-BRG1 and LgBit (Homo sapiens, UniProt P51532); experiment: HiBiT-BRG1 cell-based degradation assay (Nano-Glo HiBiT, 24 h); conditions: HeLa HiBit-BRG1/LgBit cells; for Dmax: top dose 30 μM, read-out: BRG1 HiBit Degradation Maximum (%); for DC50: read-out: BRMG1 HiBit Degradation IC50
T2 construct: expressed in transfected cells
Method in brief: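 Degradation calculated from NanoBiT luminescence relative to DMSO-treated cells (high) and cells given 2 μM known BRM/BRG1 degrader (low). HeLa cells stably expressing HiBiT-BRG1 plus LgBiT were exposed to compound for 24 h before lytic HiBiT detection.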

T1 sequence (P51531 whole entry, the tested form may be a part): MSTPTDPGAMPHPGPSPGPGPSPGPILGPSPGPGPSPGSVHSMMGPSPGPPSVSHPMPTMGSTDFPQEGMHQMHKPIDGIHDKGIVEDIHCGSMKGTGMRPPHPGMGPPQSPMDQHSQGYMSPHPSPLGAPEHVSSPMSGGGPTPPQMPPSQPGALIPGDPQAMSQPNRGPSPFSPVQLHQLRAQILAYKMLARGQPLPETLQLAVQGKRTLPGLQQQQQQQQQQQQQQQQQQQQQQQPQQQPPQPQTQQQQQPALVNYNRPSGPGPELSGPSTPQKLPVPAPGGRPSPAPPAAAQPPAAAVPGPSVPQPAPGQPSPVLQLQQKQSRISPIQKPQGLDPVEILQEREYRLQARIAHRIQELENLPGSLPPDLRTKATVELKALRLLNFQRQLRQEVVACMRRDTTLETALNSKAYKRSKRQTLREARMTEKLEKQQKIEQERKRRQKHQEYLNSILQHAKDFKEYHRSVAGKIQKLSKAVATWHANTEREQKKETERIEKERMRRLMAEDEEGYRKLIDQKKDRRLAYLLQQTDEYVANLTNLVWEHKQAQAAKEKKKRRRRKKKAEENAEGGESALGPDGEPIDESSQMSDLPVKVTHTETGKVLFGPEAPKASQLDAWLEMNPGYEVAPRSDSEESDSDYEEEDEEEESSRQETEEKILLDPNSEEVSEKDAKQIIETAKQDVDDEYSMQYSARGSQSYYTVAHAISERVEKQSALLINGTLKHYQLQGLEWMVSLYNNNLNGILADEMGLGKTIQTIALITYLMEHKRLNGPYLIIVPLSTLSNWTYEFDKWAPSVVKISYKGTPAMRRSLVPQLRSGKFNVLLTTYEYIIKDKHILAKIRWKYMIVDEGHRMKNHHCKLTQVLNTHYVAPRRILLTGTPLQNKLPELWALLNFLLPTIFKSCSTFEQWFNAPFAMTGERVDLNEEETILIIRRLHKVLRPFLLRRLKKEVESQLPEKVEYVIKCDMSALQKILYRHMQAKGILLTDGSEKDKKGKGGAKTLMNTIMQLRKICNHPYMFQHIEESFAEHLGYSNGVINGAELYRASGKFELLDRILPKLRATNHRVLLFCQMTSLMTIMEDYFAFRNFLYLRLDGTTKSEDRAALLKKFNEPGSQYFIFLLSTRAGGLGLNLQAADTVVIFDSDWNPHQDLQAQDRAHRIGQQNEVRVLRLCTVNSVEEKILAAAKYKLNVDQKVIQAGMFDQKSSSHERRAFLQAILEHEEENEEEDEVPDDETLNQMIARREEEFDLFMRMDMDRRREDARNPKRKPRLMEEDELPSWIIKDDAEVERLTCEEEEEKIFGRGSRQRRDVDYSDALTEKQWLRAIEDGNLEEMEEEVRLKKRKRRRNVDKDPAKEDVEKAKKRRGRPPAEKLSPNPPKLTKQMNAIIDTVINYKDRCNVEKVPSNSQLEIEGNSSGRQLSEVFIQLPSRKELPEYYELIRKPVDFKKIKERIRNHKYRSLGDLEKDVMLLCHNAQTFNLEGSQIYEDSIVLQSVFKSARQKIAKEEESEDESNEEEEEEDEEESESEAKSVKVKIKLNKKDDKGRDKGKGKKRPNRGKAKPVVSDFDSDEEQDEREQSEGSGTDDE
T2 sequence (P51532 whole entry, the tested form may be a part): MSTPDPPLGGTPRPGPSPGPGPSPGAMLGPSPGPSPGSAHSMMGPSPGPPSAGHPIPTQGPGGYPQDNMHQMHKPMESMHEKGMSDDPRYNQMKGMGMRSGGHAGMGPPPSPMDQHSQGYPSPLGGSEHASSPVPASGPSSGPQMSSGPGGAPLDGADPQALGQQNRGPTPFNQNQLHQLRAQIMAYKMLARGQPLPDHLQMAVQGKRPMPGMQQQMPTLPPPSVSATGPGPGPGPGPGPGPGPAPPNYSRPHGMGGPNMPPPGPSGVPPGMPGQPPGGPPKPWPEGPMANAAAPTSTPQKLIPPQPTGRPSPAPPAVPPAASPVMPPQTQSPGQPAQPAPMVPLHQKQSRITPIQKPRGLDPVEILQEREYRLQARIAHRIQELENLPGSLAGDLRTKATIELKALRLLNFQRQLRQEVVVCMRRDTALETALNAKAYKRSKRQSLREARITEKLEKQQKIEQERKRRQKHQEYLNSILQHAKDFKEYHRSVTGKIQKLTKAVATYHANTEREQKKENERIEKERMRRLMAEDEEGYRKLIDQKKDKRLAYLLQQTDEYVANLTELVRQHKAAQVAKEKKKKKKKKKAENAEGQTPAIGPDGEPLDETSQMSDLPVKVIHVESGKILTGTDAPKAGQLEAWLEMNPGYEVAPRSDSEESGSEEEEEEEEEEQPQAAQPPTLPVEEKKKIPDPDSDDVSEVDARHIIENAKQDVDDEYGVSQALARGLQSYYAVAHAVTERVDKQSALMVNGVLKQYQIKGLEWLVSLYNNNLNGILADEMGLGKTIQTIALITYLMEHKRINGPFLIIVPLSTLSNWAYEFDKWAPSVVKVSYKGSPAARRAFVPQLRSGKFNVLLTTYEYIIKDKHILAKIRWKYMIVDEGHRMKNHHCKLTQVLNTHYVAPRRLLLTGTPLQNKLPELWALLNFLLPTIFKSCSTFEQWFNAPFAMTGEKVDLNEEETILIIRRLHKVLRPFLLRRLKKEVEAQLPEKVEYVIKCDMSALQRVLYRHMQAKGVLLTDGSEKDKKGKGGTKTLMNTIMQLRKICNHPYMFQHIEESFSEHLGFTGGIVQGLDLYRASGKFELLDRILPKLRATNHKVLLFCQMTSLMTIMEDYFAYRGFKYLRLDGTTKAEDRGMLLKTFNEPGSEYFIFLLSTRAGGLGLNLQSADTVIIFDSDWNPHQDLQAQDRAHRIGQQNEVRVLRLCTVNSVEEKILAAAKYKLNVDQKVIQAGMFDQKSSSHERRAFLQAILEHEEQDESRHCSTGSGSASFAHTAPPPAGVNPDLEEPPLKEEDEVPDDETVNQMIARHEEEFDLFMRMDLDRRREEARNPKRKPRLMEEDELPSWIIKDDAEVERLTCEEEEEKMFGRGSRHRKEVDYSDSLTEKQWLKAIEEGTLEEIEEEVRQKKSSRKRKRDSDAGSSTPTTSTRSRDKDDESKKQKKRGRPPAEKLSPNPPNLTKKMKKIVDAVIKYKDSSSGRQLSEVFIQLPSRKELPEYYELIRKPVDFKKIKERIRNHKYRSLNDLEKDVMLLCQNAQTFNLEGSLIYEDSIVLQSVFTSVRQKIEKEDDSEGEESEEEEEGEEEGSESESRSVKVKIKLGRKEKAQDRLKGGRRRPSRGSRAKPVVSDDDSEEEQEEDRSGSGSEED

Row | DC50 [1] | Dmax [2] | DC50 [2] | Compound | BRM HiBit Degradation Maximum (%) [1]
1 | > 10 nM | < 50% | – | Cc1ncsc1-c1ccc([C@H](C)NC(=O)[C@@H]2C[C@@H](O)CN2C(=O)[C@@H](c2ccnc(N3CC4(CN(c5ccc6cc(-c7ccccc7O)nnc6c5)C4)C3)c2)C(C)C)cc1 [Compound 175, (2S,4R)-4-hydroxy-1-[(2R)-2-(2-{6-[3-(2-hydroxyphenyl)cinnolin-7-yl]-2,6-diazaspiro[3.3]heptan-2-yl}pyridin-4-yl)-3-methylbutanoyl]-N-[(1S)-1-[4-(4-methyl-1,3-thiazol-5-yl)phenyl]ethyl]pyrrolidine-2-carboxamide] | A (“A” indicates maximum degradation ≥75%)
2 | < 10 nM | > 75% | < 10 nM | Cc1ncsc1-c1ccc([C@H](C)NC(=O)[C@@H]2C[C@@H](O)CN2C(=O)[C@H](C(C)C)n2cc(-c3cc4cc(-c5ccccc5O)nnc4cc3F)nn2)cc1 [Compound 176, (2S,4R)-1-((S)-2-(4-(7-fluoro-3-(2-hydroxyphenyl)cinnolin-6-yl)-1H-1,2,3-triazol-1-yl)-3-methylbutanoyl)-4-hydroxy-N-((S)-1-(4-(4-methylthiazol-5-yl)phenyl)ethyl)pyrrolidine-2-carboxamide] | A (“A” indicates maximum degradation ≥75%)
3 | < 10 nM | > 75% | > 10 nM | CC(C)[C@@H](C(=O)N1C[C@H](O)C[C@H]1C(=O)N[C@@H](C)c1ccc(F)cc1)n1cc(-c2ccc3nnc(-c4cccc(F)c4O)cc3c2)nn1 [Compound 177, (2S,4R)-1-((S)-2-(4-(3-(3-fluoro-2-hydroxyphenyl)cinnolin-6-yl)-1H-1,2,3-triazol-1-yl)-3-methylbutanoyl)-N-((S)-1-(4-fluorophenyl)ethyl)-4-hydroxypyrrolidine-2-carboxamide] | A (“A” indicates maximum degradation ≥75%)
4 | < 10 nM | > 75% | > 10 nM | CC(C)[C@@H](C(=O)N1C[C@H](O)C[C@H]1C(=O)N[C@@H](C)c1ccc(Br)cc1)n1cc(-c2ccc3nnc(-c4cccc(F)c4O)cc3c2)nn1 [Compound 178, (2S,4R)-N-((S)-1-(4-bromophenyl)ethyl)-1-((S)-2-(4-(3-(3-fluoro-2-hydroxyphenyl)cinnolin-6-yl)-1H-1,2,3-triazol-1-yl)-3-methylbutanoyl)-4-hydroxypyrrolidine-2-carboxamide] | A (“A” indicates maximum degradation ≥75%)
5 | < 10 nM | < 50% | – | Cc1ncsc1-c1ccc([C@H](C)NC(=O)[C@@H]2C[C@@H](O)CN2C(=O)[C@@H](c2cc(N3CC4(C3)CN(c3cc5nnc(-c6ccccc6O)cc5cc3F)C4)no2)C(C)C)cc1 [Compound 179, (2S,4R)-1-((R)-2-(3-(6-(6-fluoro-3-(2-hydroxyphenyl)cinnolin-7-yl)-2,6-diazaspiro [3.3]heptan-2-yl)isoxazol-5-yl)-3-methylbutanoyl)-4-hydroxy-N-((S)-1-(4-(4-methylthiazol-5-yl)phenyl)ethyl)pyrrolidine-2-carboxamide] | A (“A” indicates maximum degradation ≥75%)
6 | < 10 nM | < 50% | – | Cc1ncsc1-c1ccc([C@H](C)NC(=O)[C@@H]2C[C@@H](O)CN2C(=O)[C@@H](c2cc(N3CC4(C3)CN(c3cc5nnc(-c6cccc(F)c6O)cc5cc3C3CC3)C4)no2)C(C)C)cc1 [Compound 180, (2S,4R)-1-((R)-2-(3-(6-(6-cyclopropyl-3-(3-fluoro-2-hydroxyphenyl)cinnolin-7-yl)-2,6-diazaspiro[3.3]heptan-2-yl)isoxazol-5-yl)-3-methylbutanoyl)-4-hydroxy-N-((S)-1-(4-(4-methylthiazol-5-yl)phenyl)ethyl)pyrrolidine-2-carboxamide] | A (“A” indicates maximum degradation ≥75%)
7 | > 100 nM | < 50% | – | CNC(=O)[C@@H]1C[C@@H](O)CN1C(=O)[C@@H](c1cc(N2CC3(CN(c4ccc5nnc(-c6ccccc6O)cc5c4)C3)C2)no1)C(C)C [Compound 181, (2S,4R)-4-hydroxy-1-((R)-2-(3-(6-(3-(2-hydroxyphenyl)cinnolin-6-yl)-2,6-diazaspiro[3.3]heptan-2-yl)isoxazol-5-yl)-3-methylbutanoyl)-N-methylpyrrolidine-2-carboxamide] | A (“A” indicates maximum degradation ≥75%)
8 | < 10 nM | > 75% | > 10 nM | Cc1ncsc1-c1ccc([C@H](C)NC(=O)[C@@H]2C[C@@H](O)CN2C(=O)[C@@H](c2cc(N3CCC(Oc4ccc5nnc(-c6ccccc6O)cc5c4)CC3)no2)C(C)C)cc1 [Compound 182, (2S,4R)-4-hydroxy-1-((R)-2-(3-(4-((3-(2-hydroxyphenyl)cinnolin-6-yl)oxy)piperidin-1-yl)isoxazol-5-yl)-3-methylbutanoyl)-N-((S)-1-(4-(4-methylthiazol-5-yl)phenyl)ethyl)pyrrolidine-2-carboxamide] | A (“A” indicates maximum degradation ≥75%)
9 | < 10 nM | > 50% | > 10 nM | Cc1ncsc1-c1ccc([C@H](C)NC(=O)[C@@H]2C[C@@H](O)CN2C(=O)[C@@H](c2cc(N3CCC(Oc4ccc5cc(-c6ccccc6O)nnc5c4)CC3)no2)C(C)C)cc1 [Compound 183, (2S,4R)-4-hydroxy-1-((R)-2-(3-(4-((3-(2-hydroxyphenyl)cinnolin-7-yl)oxy)piperidin-1-yl)isoxazol-5-yl)-3-methylbutanoyl)-N-((S)-1-(4-(4-methylthiazol-5-yl)phenyl)ethyl)pyrrolidine-2-carboxamide] | A (“A” indicates maximum degradation ≥75%)
10 | < 10 nM | > 50% | > 10 nM | Cc1ncsc1-c1ccc([C@H](C)NC(=O)[C@@H]2C[C@@H](O)CN2C(=O)[C@@H](c2cc(N3CC4(CC(Oc5ccc6nnc(-c7ccccc7O)cc6c5)C4)C3)no2)C(C)C)cc1 [Compound 184, (2S,4R)-4-hydroxy-1-((R)-2-(3-(6-((3-(2-hydroxyphenyl)cinnolin-6-yl)oxy)-2-azaspiro[3.3]heptan-2-yl)isoxazol-5-yl)-3-methylbutanoyl)-N-((S)-1-(4-(4-methylthiazol-5-yl)phenyl)ethyl)pyrrolidine-2-carboxamide] | A (“A” indicates maximum degradation ≥75%)
11 | < 10 nM | > 75% | < 10 nM | Cc1ncsc1-c1ccc([C@H](C)NC(=O)[C@@H]2C[C@@H](O)CN2C(=O)[C@H](C(C)C)n2cc(C3CC4(C3)CN(c3ccc5cc(-c6ccccc6O)nnc5c3)C4)nn2)cc1 [Compound 186, (2S,4R)-4-hydroxy-1-[(2S)-2-(4-{2-[3-(2-hydroxyphenyl)cinnolin-7-yl]-2-azaspiro[3.3]heptan-6-yl}-1,2,3-triazol-1-yl)-3-methylbutanoyl]-N-[(1S)-1-[4-(4-methyl-1,3-thiazol-5-yl)phenyl]ethyl]pyrrolidine-2-carboxamide] | A (“A” indicates maximum degradation ≥75%)
12 | < 10 nM | > 75% | > 10 nM | Cc1ncsc1-c1ccc([C@H](C)NC(=O)[C@@H]2C[C@@H](O)CN2C(=O)[C@@H](c2cc(N3C[C@]4(C)CN(c5ccc6cc(-c7ccccc7O)nnc6c5)C[C@]4(C)C3)no2)C(C)C)cc1 [Compound 187, (2S,4R)-4-hydroxy-1-((R)-2-(3-((3aR,6aS)-5-(3-(2-hydroxyphenyl)cinnolin-7-yl)-3a,6a-dimethylhexahydropyrrolo[3,4-c]pyrrol-2(1H)-yl)isoxazol-5-yl)-3-methylbutanoyl)-N-((S)-1-(4-(4-methylthiazol-5-yl)phenyl)ethyl)pyrrolidine-2-carboxamide] | A (“A” indicates maximum degradation ≥75%)
13 | > 10 nM | > 75% | > 10 nM | Cc1ncsc1-c1ccc([C@H](C)NC(=O)[C@@H]2C[C@@H](O)CN2C(=O)[C@@H](c2cc(N3C[C@]4(C)CN(c5ccc6nnc(-c7ccccc7O)cc6c5)C[C@]4(C)C3)no2)C(C)C)cc1 [Compound 188, (2S,4R)-4-hydroxy-1-((R)-2-(3-((3aR,6aS)-5-(3-(2-hydroxyphenyl)cinnolin-6-yl)-3a,6a-dimethylhexahydropyrrolo[3,4-c]pyrrol-2(1H)-yl)isoxazol-5-yl)-3-methylbutanoyl)-N-((S)-1-(4-(4-methylthiazol-5-yl)phenyl)ethyl)pyrrolidine-2-carboxamide] | A (“A” indicates maximum degradation ≥75%)
14 | < 10 nM | < 50% | – | Cc1ncsc1-c1ccc([C@H](C)NC(=O)[C@@H]2C[C@@H](O)CN2C(=O)[C@H](C(C)C)n2cc(N3CC4(CN(c5ccc6nnc(-c7ccccc7O)cc6c5)CCO4)C3)nn2)cc1 [Compound 189, (2S,4R)-4-hydroxy-1-((S)-2-(4-(8-(3-(2-hydroxyphenyl)cinnolin-6-yl)-5-oxa-2,8-diazaspiro[3.5]nonan-2-yl)-1H-1,2,3-triazol-1-yl)-3-methylbutanoyl)-N-((S)-1-(4-(4-methylthiazol-5-yl)phenyl)ethyl)pyrrolidine-2-carboxamide] | A (“A” indicates maximum degradation ≥75%)
